PubChem BioAssay AID248 (DTP/NCI, 2004)
Where “and” joins values, the source holds several entries; their conditions need not be identical. Equal values may be shown once. Toxic doses and inconclusive results are not listed. Rule as the data show it: active = T/C of 150% or more; inactive = T/C below 125%.

System: L1210 leukemia ip in BDF1 mice, survival T/C
Test: NCI In Vivo Anticancer Drug Screen. Data for tumor model L1210 Leukemia (intraperitoneal) in B6D2F1 (BDF1) mice
Settings: endpoint: mean survival time, higher = longer survival
Summary of the method: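 Tumor cells were implanted, animals were treated, and survival was followed. The result divides the treated measurement by the vehicle-control measurement.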

[1] = dose: 25.6 mg/kg/injection, schedule: Q04DX002 (ip), vehicle: saline with Tween-80
[2] = dose: 64.0 mg/kg/injection, schedule: Q04DX002 (ip), vehicle: saline with Tween-80
[3] = dose: 100.0 mg/kg/injection, schedule: Q04DX003 (ip), vehicle: saline with Tween-80
[4] = dose: 160.0 mg/kg/injection, schedule: Q04DX002 (ip), vehicle: saline with Tween-80
[5] = dose: 200.0 mg/kg/injection, schedule: Q04DX003 (ip), vehicle: saline with Tween-80
[6] = dose: 400.0 mg/kg/injection, schedule: Q04DX002 (ip), vehicle: saline with Tween-80
[7] = dose: 400.0 mg/kg/injection, schedule: Q04DX003 (ip), vehicle: saline with Tween-80
[8] = dose: 100.0 mg/kg/injection, schedule: Q04DX003 (ip), vehicle: Klucel (hydroxypropylcellulose) (HPC)
[9] = dose: 200.0 mg/kg/injection, schedule: Q04DX003 (ip), vehicle: Klucel (hydroxypropylcellulose) (HPC)
[10] = dose: 400.0 mg/kg/injection, schedule: Q04DX003 (ip), vehicle: Klucel (hydroxypropylcellulose) (HPC)
[11] = dose: 100.0 mg/kg/injection, schedule: Q04DX002 (ip), vehicle: Klucel (hydroxypropylcellulose) (HPC)
[12] = dose: 200.0 mg/kg/injection, schedule: Q04DX002 (ip), vehicle: Klucel (hydroxypropylcellulose) (HPC)
[13] = dose: 100.0 mg/kg/injection, schedule: Q01DX001 (ip), vehicle: saline
[14] = dose: 200.0 mg/kg/injection, schedule: Q01DX001 (ip), vehicle: saline
[15] = dose: 400.0 mg/kg/injection, schedule: Q01DX001 (ip), vehicle: saline
[16] = dose: 100.0 mg/kg/injection, schedule: Q01DX001 (ip), vehicle: Klucel (hydroxypropylcellulose) (HPC)
[17] = dose: 200.0 mg/kg/injection, schedule: Q01DX001 (ip), vehicle: Klucel (hydroxypropylcellulose) (HPC)
[18] = dose: 400.0 mg/kg/injection, schedule: Q01DX001 (ip), vehicle: Klucel (hydroxypropylcellulose) (HPC)
[19] = dose: 100.0 mg/kg/injection, schedule: Q01DX009 (ip), vehicle: saline with Tween-80
[20] = dose: 200.0 mg/kg/injection, schedule: Q01DX009 (ip), vehicle: saline with Tween-80
[21] = dose: 50.0 mg/kg/injection, schedule: Q01DX001 (ip), vehicle: carboxymethylcellulose (CMC)
[22] = dose: 100.0 mg/kg/injection, schedule: Q01DX009 (ip), vehicle: Klucel (hydroxypropylcellulose) (HPC)
[23] = dose: 200.0 mg/kg/injection, schedule: Q01DX009 (ip), vehicle: Klucel (hydroxypropylcellulose) (HPC)
[24] = dose: 400.0 mg/kg/injection, schedule: Q01DX009 (ip), vehicle: Klucel (hydroxypropylcellulose) (HPC)

Measured: T/C

S=C(CC(C(=S)N1CCOCC1)N1CCOCC1)N1CCOCC1 (centres undefined)
inactive: [1] 98 % of control | [2] 102 % of control | [3] 98 % of control | [4] 87 % of control | [5] 104 % of control | [6] 98 % of control | [7] 101 % of control

Oc1c(Cl)c2nc3ccccc3nc2c2ccccc12
inactive: [8] 95 % of control | [9] 97 % of control | [10] 98 % of control

CC(=O)NC1Cc2cc(C)cc(C)c21 (centres undefined)
inactive: dose: 50.0 mg/kg/injection, schedule: Q04DX002 (ip), vehicle: Klucel (hydroxypropylcellulose) (HPC) 105 % of control | [11] 102 % of control | [12] 98 % of control

NC(=O)OCC(O)COc1ccc(Cl)cc1 (centres undefined)
inactive: [13] 95 % of control | [14] 97 % of control | [15] 95 % of control

O=C1C=C(NCCCCC2CCCCC2)c2ccccc2C1=O
inactive: [13] 95 % of control | [14] 97 % of control | [15] 91 % of control

O=C=Nc1ccc(C(=O)CCl)cc1
inactive: dose: 20.0 mg/kg/injection, schedule: Q01DX009 (ip), vehicle: saline with Tween-80 91 % of control | dose: 40.0 mg/kg/injection, schedule: Q01DX009 (ip), vehicle: saline with Tween-80 91 % of control | dose: 80.0 mg/kg/injection, schedule: Q01DX009 (ip), vehicle: saline with Tween-80 101 % of control | dose: 160.0 mg/kg/injection, schedule: Q01DX009 (ip), vehicle: saline with Tween-80 98 % of control

CCN1CC1
inactive: dose: 6.25 mg/kg/injection, schedule: Q01DX009 (ip), vehicle: Klucel (hydroxypropylcellulose) (HPC) 98 % of control | dose: 6.25 mg/kg/injection, schedule: Q04DX003 (ip), vehicle: Klucel (hydroxypropylcellulose) (HPC) 96 % of control | dose: 12.5 mg/kg/injection, schedule: Q01DX009 (ip), vehicle: Klucel (hydroxypropylcellulose) (HPC) 107 % of control | dose: 12.5 mg/kg/injection, schedule: Q04DX003 (ip), vehicle: Klucel (hydroxypropylcellulose) (HPC) 90 % of control | dose: 25.0 mg/kg/injection, schedule: Q04DX003 (ip), vehicle: Klucel (hydroxypropylcellulose) (HPC) 109 % of control

C[Si](C)(C)c1cccc(-c2ccccc2)c1
inactive: [1] 93 % of control | [2] 104 % of control | [3] 101 % of control | [4] 97 % of control | [5] 92 % of control | [6] 97 % of control | [7] 101 % of control

CCOC(=O)CCC(NC(=O)c1ccc(I)cc1)C(=O)OCC (centres undefined)
inactive: [8] 94 % of control | [9] 96 % of control | [10] 102 % of control

COC(=O)c1cc(S(=O)(=O)c2cc(C(=O)OC)c(O)cc2OC)c(OC)cc1O
inactive: dose: 100.0 mg/kg/injection, schedule: Q04DX002 (ip), vehicle: carboxymethylcellulose (CMC) 95 % of control | dose: 200.0 mg/kg/injection, schedule: Q04DX002 (ip), vehicle: carboxymethylcellulose (CMC) 95 % of control | dose: 400.0 mg/kg/injection, schedule: Q04DX002 (ip), vehicle: carboxymethylcellulose (CMC) 98 % of control

O=C1C(c2ccccc2)=C2c3ccccc3-c3ccccc3C2(O)C1c1ccccc1 (centres undefined)
inactive: [16] 98 % of control | [17] 103 % of control | [18] 98 % of control

CC1=Nc2onc(C)c2N=C(C)C1
inactive: [19] 109 % of control | [3] 100 % of control | [20] 94 % of control | [5] 93 % of control | dose: 400.0 mg/kg/injection, schedule: Q01DX009 (ip), vehicle: saline with Tween-80 96 % of control | [7] 95 % of control

O=S(=O)(O)c1cccc2c(S(=O)(=O)O)cccc12
inactive: [8] 107 % of control | [9] 100 % of control | [10] 97 % of control

CCCCCC(/C=N/N=C(N)N)=N\N=C(N)N
inactive: dose: 15.0 mg/kg/injection, schedule: Q01DX Z (ip), vehicle: carboxymethylcellulose (CMC) 98 % of control | dose: 30.0 mg/kg/injection, schedule: Q01DX Z (ip), vehicle: carboxymethylcellulose (CMC) 97 % of control | dose: 30.0 mg/kg/injection, schedule: Q01DX Z (oral), vehicle: carboxymethylcellulose (CMC) 98 % of control | dose: 60.0 mg/kg/injection, schedule: Q01DX Z (ip), vehicle: carboxymethylcellulose (CMC) 95 % of control | dose: 60.0 mg/kg/injection, schedule: Q01DX Z (oral), vehicle: carboxymethylcellulose (CMC) 87 % of control | dose: 120.0 mg/kg/injection, schedule: Q01DX Z (oral), vehicle: carboxymethylcellulose (CMC) 91 % of control | dose: 240.0 mg/kg/injection, schedule: Q01DX Z (oral), vehicle: carboxymethylcellulose (CMC) 95 % of control

CCCCNC(=O)OCC
inactive: [21] 102 % of control | dose: 50.0 mg/kg/injection, schedule: Q01DX009 (ip), vehicle: saline with Tween-80 90 % of control | dose: 88.0 mg/kg/injection, schedule: Q01DX001 (ip), vehicle: carboxymethylcellulose (CMC) 104 % of control and 92 % of control | dose: 100.0 mg/kg/injection, schedule: Q01DX001 (ip), vehicle: carboxymethylcellulose (CMC) 98 % of control | [19] 95 % of control | dose: 133.0 mg/kg/injection, schedule: Q01DX001 (ip), vehicle: carboxymethylcellulose (CMC) 93 % of control and 92 % of control | dose: 200.0 mg/kg/injection, schedule: Q01DX001 (ip), vehicle: carboxymethylcellulose (CMC) 93 % of control and 92 % of control | [20] 93 % of control | dose: 300.0 mg/kg/injection, schedule: Q01DX001 (ip), vehicle: carboxymethylcellulose (CMC) 96 % of control and 106 % of control | dose: 400.0 mg/kg/injection, schedule: Q01DX001 (ip), vehicle: carboxymethylcellulose (CMC) 102 % of control

Nc1c(Br)cccc1Br
inactive: dose: 50.0 mg/kg/injection, schedule: Q01DX001 (ip), vehicle: saline 101 % of control | [13] 109 % of control | [14] 103 % of control | [15] 97 % of control

CN(C)c1nn[nH]n1
inactive: [8] 95 % of control | [9] 88 % of control | [10] 95 % of control

O=C(O)c1ccccc1NC(=S)c1ccccc1
inactive: dose: 25.0 mg/kg/injection, schedule: Q04DX002 (ip), vehicle: other 96 % of control | dose: 50.0 mg/kg/injection, schedule: Q04DX002 (ip), vehicle: other 96 % of control | dose: 100.0 mg/kg/injection, schedule: Q04DX002 (ip), vehicle: other 93 % of control and 104 % of control

COC(=O)C1C(C(=O)OC)C2(Cl)C(Cl)=C(Cl)C1(Cl)C2(Cl)Cl (centres undefined)
inactive: [22] 98 % of control | [23] 104 % of control

CCCCCCN(CCCCCC)C1=C(Cl)C(=O)c2ccccc2C1=O
inactive: dose: 12.5 mg/kg/injection, schedule: Q01DX001 (ip), vehicle: carboxymethylcellulose (CMC) 97 % of control | dose: 25.0 mg/kg/injection, schedule: Q01DX001 (ip), vehicle: carboxymethylcellulose (CMC) 103 % of control | [21] 96 % of control

CC(=O)Nc1ccc(S(=O)(=O)NC2(c3ccccc3)C(=O)N(C)C(=O)N(C)C2=O)cc1
inactive: [13] 91 % of control | [14] 94 % of control | [15] 103 % of control

O=C(c1ccccc1)c1cc(-c2cc(=O)cc(-c3cc(C(=O)c4ccccc4)c(O)cc3O)o2)c(O)cc1O
inactive: [13] 96 % of control | [14] 105 % of control | [15] 94 % of control

C=CCCCCCCCCC(=O)N/N=C/c1cccs1
inactive: [22] 95 % of control | [23] 100 % of control | [24] 105 % of control

O=C1CC(C(c2ccccc2)c2ccccc2)CO1 (centres undefined)
inactive: [16] 104 % of control | [22] 110 % of control and 89 % of control | [11] 94 % of control and 99 % of control | [8] 94 % of control | [17] 100 % of control | [23] 113 % of control and 89 % of control | [12] 94 % of control and 96 % of control | [9] 94 % of control | [18] 98 % of control | [24] 116 % of control and 89 % of control | dose: 400.0 mg/kg/injection, schedule: Q04DX002 (ip), vehicle: Klucel (hydroxypropylcellulose) (HPC) 99 % of control and 101 % of control | [10] 95 % of control

O=C(Nc1cc(Cl)ccc1Cl)C(Cl)(Cl)Cl
inactive: [16] 97 % of control | [17] 103 % of control | [18] 93 % of control
